In US6288077A, “2,3-methano-amino acid compounds” (Adir et Compagnie, priority 1999, dated 2001):
Where a name gives a salt, the structure may show the parent alone.

Legend:
human plasma [1] = experiment: Activated cephalin time (ACT) in human plasma, anti-coagulant activity; assay type: biochemical; details: human plasma deficient in platelets, 2 min incubation at 37° C., PTT Automate Cephalin
Procedure: (§1) Anti-coagulant Activity, Measurement of Thrombin Time and Activated […] Man In order to evaluate the anti-coagulant activity of the compounds of the invention, the thrombin time (TT) and the activated cephalin time (ACT) were determined in human plasma samples. An ST4 coagulometer (Diagnostica Stago, France) was used. A lyophilised plasma, deficient in platelets (Stago), is taken up in distilled water. The TT is obtained using the reagent Prest Thrombin and the ACT using the reagent PTT Automate […]. […] The activity of an antagonist is evaluated by its capacity to prolong the TT and the ACT relative to the control. The effect of the inhibitors is expressed by the concentration in μM that doubles the coagulation time (Ctt2).

human plasma [2] = experiment: Thrombin time (TT) in human plasma, anti-coagulant activity; assay type: biochemical; details: human plasma deficient in platelets, 2 min incubation at 37° C., Prest Thrombin
Procedure: as §1

human thrombin = target: T1, human thrombin (Homo sapiens, UniProt P00734); experiment: Inhibition of human thrombin (fibrin formation from purified human fibrinogen); assay type: biochemical; details: human thrombin 0.7 nM, human fibrinogen 4 mM, pH 7.4, 20° C., 10 min preincubation
T1 construct: purchased Sigma
Procedure: Inhibition of Thrombin and of Fibrinolysis Serine Proteases […] The fibrin formed by the thrombin or by the paranitroanilide released by the action of the serine protease is measured spectrophotometrically at 405 nm after from 15 to 30 minutes' reaction at 20° C.

dog plasma [3] = experiment: Anti-coagulant activity after administration per os to the dog, activated cephalin time (ACT); assay type: in vivo; details: oral
Procedure: (§2) Anti-coagulant Activity After Administration Per os to the Dog
(§3) Male or female dogs weighing 11-28 kg are treated by the oral route with the products of the invention (5 or 10 mg/kg). The coagulation times (TT, ACT) are determined in dog plasma samples 10 min. before and 30 min., 1 hour, 2 hours, 4 hours and 6 hours after administration of the products. The measurements of the coagulation times are carried out as described in Example 81.
(§4) Under the conditions of our experiments, the TT is of the order of 19 seconds and the ACT of the order of 18 seconds.
(§5) The Table 4 summarizes the results obtained.

dog plasma [4] = experiment: Anti-coagulant activity after administration per os to the dog, thrombin time (TT); assay type: in vivo; details: oral
Procedure: as §2, §3, §4, §5

| Compound | ACT Ctt2 (concentration that doubles the coagulation time) (human plasma [1]) | TT Ctt2 (concentration that doubles the coagulation time) (human plasma [2]) | IC50 (human thrombin) | ACT increase (maximal; number of times by which the initial time is increased) (dog plasma [3]; 5 mg/kg) | TT increase (maximal; number of times by which the initial time is increased) (dog plasma [4]; 5 mg/kg) | ACT increase (maximal; number of times by which the initial time is increased) (dog plasma [3]; 10 mg/kg) | TT increase (maximal; number of times by which the initial time is increased) (dog plasma [4]; 10 mg/kg) |
| --- | --- | --- | --- | --- | --- | --- | --- |
| Cl.N=C(N)c1ccc(CNC(=O)[C@]23C[C@H]2CCN3C(=O)[C@@H](Cc2ccccc2)NS(=O)(=O)Cc2ccccc2)cc1 [Example 9, 1-[N-Benzylsulphonyl-(2R)-3-phenylalanyl]-N-(4-amidinobenzyl)-(2S,3R)-2,3-methano-prolinamide hydrochloride] | 0.86 µM | 0.20 µM | 6 nM | – | – | – | – |
| Cc1nc(N)ccc1CNC(=O)[C@]12C[C@H]1CCCN2C(=O)[C@H](N)C(C1CCCCC1)C1CCCCC1 [Example 63, 1-[(2R)-3,3-Dicyclohexylalanyl]-N-[(6-amino-2-methyl-3-pyridyl)methyl]-(2S,3R)-2,3-methano-homoprolinamide dihydrochloride] | – | – | 8.8 nM | – | – | – | – |
| Cl.Cl.N=C(N)c1ccc(CNC(=O)[C@]23C[C@H]2CCN3C(=O)[C@H](N)C(c2ccccc2)c2ccccc2)cc1 [Example 11, 1-[(2R)-3,3-Diphenylalanyl]-N-(4-amidinobenzyl)-(2S,3R)-2,3-methano-prolinamide dihydrochloride] | 0.59 µM | 0.06 µM | 4 nM | 2.3 times | 5.6 times | – | – |
| CN[C@H](CC1CCCCC1)C(=O)N1CCC[C@@H]2C[C@@]21C(=O)NCc1ccc(N)nc1C.Cl.Cl [Example 29, 1-[N-Methyl-(2R)-3-cyclohexylalanyl]-N-[(6-amino-2-methyl-3-pyridyl)methyl]-(2S,3R)-2,3-methano-homoprolinamide dihydrochloride] | 2.80 µM | 0.46 µM | 44 nM | – | – | 1.7 times | 6.2 times |
| Cc1nc(N)ccc1CNC(=O)[C@]12C[C@H]1CCCN2C(=O)[C@@H](CC1CCCCC1)NCC(=O)O.Cl.Cl [Example 32, 1-[N-Carboxymethyl-(2R)-3-cyclohexylalanyl]-N-[(6-amino-2-methyl-3-pyridyl)methyl]-(2S,3R)-2,3-methano-homoprolinamide dihydrochloride] | 1.09 µM | 0.12 µM | 7.1 nM | – | – | – | – |
| Cl.Cl.N=C(N)c1ccc(CNC(=O)[C@]23C[C@H]2CCN3C(=O)[C@H](N)CC2CCCCC2)cc1 [Example 2, 1-[(2R)-3-Cyclohexylalanyl]-N-(4-amidinobenzyl)-(2S,3R)-2,3-methano-prolinamide dihydrochloride] | 0.52 µM | 0.07 µM | 7.9 nM | 1.4 times | 3.8 times | – | – |
| Cl.Cl.N=C(N)c1ccc(CNC(=O)[C@]23C[C@H]2CCN3C(=O)[C@H](N)C(C2CCCCC2)C2CCCCC2)cc1 [Example 13, 1-[(2R)-3,3-Dicyclohexylalanyl]-N-(4-amidinobenzyl)-(2S,3R)-2,3-methano-prolinamide dihydrochloride] | 2.30 µM | 0.18 µM | 1.2 nM | – | – | – | – |
| Cl.N=C(N)c1ccc(CNC(=O)[C@]23C[C@H]2CCN3C(=O)[C@H](NCC(=O)O)C(C2CCCCC2)C2CCCCC2)cc1 [Example 14, 1-[N-Carboxymethyl-(2R)-3,3-dicyclohexylalanyl]-N-(4-amidinobenzyl)-(2S,3R)-2,3-methano-prolinamide hydrochloride] | 2.20 µM | 0.19 µM | 1 nM | – | – | – | – |
| N=C(N)c1ccc(CNC(=O)[C@]23C[C@H]2CCN3C(=O)[C@H](NS(=O)(=O)Cc2ccccc2)C2CCCCC2)cc1 [Example 16, 1-[N-Benzylsulphonyl-(2R)-cyclohexylglycyl]-N-(4-amidinobenzyl)-(2S,3R)-2,3-methano-prolinamide hydrochloride] | 0.42 µM | 0.09 µM | 1 nM | – | – | – | – |
| Cl.Cl.N=C(N)c1ccc(CNC(=O)[C@]23C[C@H]2CCCN3C(=O)[C@H](N)C(c2ccccc2)c2ccccc2)cc1 [Example 61, 1-[(2R)-3,3-Diphenylalanyl]-N-(4-amidinobenzyl)-(2S,3R)-2,3-methano-homoprolinamide dihydrochloride] | 0.47 µM | 0.05 µM | 1 nM | 2.0 times | 14.2 times | – | – |
| Cl.N=C(N)c1ccc(CNC(=O)[C@]23C[C@H]2CCN3C(=O)[C@@H](CC2CCCCC2)NCC(=O)O)cc1 [Example 3, 1-[N-Carboxymethyl-(2R)-3-cyclohexylalanyl]-N-(4-amidinobenzyl)-(2S,3R)-2,3-methano-prolinamide hydrochloride] | 0.56 µM | 0.06 µM | 5.3 nM | 2.1 times | 8.4 times | – | – |
| Cl.N=C(N)c1ccc(CNC(=O)[C@]23C[C@H]2CCCN3C(=O)[C@@H](CC2CCCCC2)NCC(=O)O)cc1 [Example 24, 1-[N-Carboxymethyl-(2R)-3-cyclohexylalanyl]-N-(4-amidinobenzyl)-(2S,3R)-2,3-methano-homoprolinamide hydrochloride] | 0.58 µM | 0.03 µM | 2.3 nM | 1.2 times | 6.7 times | – | – |
| CCOC(=O)CN[C@H](CC1CCCCC1)C(=O)N1CCC[C@@H]2C[C@@]21C(=O)NCc1ccc(N)nc1C.Cl.Cl [Example 33, 1-[N-Ethoxycarbonylmethyl-(2R)-3-cyclohexylalanyl]-N-[(6-amino-2-methyl-3-pyridyl)methyl]-(2S,3R)-2,3-methano-homoprolinamide dihydrochloride] | 1.10 µM | 0.11 µM | 5.1 nM | 1.5 times | 7.1 times | – | – |
| CCCCN[C@H](CC1CCCCC1)C(=O)N1CCC[C@@H]2C[C@@]21C(=O)NCc1ccc(N)nc1C.Cl.Cl [Example 31, 1-[N-Butyl-(2R)-3-cyclohexylalanyl]-N-[(6-amino-2-methyl-3-pyridyl)methyl]-(2S,3R)-2,3-methano-homoprolinamide dihydrochloride] | 1.30 µM | 0.17 µM | 5.1 nM | – | – | – | – |
| N=C(N)c1ccc(CNC(=O)[C@]23C[C@H]2CCN3C(=O)[C@H](NCC(=O)O)C2CCCCC2)cc1 [Example 17, 1-[N-Carboxymethyl-(2R)-cyclohexylglycyl]-N-(4-amidinobenzyl)-(2S,3R)-2,3-methano-prolinamide hydrochloride] | 0.86 µM | 0.11 µM | 28 nM | 3.7 times | 16.0 times | – | – |
| CCOC(=O)CN[C@H](CC1CCCCC1)C(=O)N1CCC[C@@H]2C[C@@]21C(=O)NCc1ccc(C(=N)N)cc1.Cl.Cl [Example 25, 1-[N-Ethoxycarbonylmethyl-(2R)-3-cyclohexylalanyl]-N-(4-amidinobenzyl)-(2S,3R)-2,3-methano-homoprolinamide dihydrochloride] | 0.45 µM | 0.08 µM | 2 nM | – | – | – | – |
